{
  "source": "patent EP4768499A1",
  "about": "“MACROCYCLIC PEPTIDE COMPOUND HAVING CELL MEMBRANE PERMEABILITY AND METABOLIC STABILITY, AND LIBRARY CONTAINING SAME” (Chugai Seiyaku Kabushiki Kaisha, priority 2023, dated 2025)",
  "key": {"[1]": {"experiment": "Metabolic stability test: liver microsomal stability assay", "format": "in vitro ADME, mouse", "details": "for microsomal CLint at 1 µM: male, pH 7.4, presence of NADPH, read-out: Mouse Hepatic Microsome CLh,int NADPH(+)"}, "[2]": {"experiment": "Membrane permeability test using Caco-2 cells with preincubation", "format": "in vitro ADME", "details": "Caco-2"}, "Caco-2 cells": {"system": "Caco-2 cells", "experiment": "Membrane permeability test using Caco-2 cells with preincubation", "format": "in vitro ADME"}, "[3]": {"details": "mouse liver microsomes 0.5 mg protein/mL, compound 1 µM"}, "[4]": {"details": "mouse liver microsomes 0.5 mg protein/mL, compound 1 µM, absence of NADPH"}, "[5]": {"details": "preincubation 20 to 24 hours, Apical FaSSIF/HBSS pH 6.0, Basal HBSS 4% BSA pH 7.4, 180 minutes, read-out: Caco2 Papp"}, "[6]": {"details": "Caco-2 cells, preincubation 20 to 24 hours, apical FaSSIF/HBSS 1% DMSO pH 6.0, basal HBSS 4% BSA pH 7.4, basal sample at 180 minutes"}},
  "note": "Where two headings read alike, the source gives them in different places. Starred links: 1 amine or outer side, 2 acyl side, 3 side chain; linkers in the order of their positions; H or OH if unused. Positions of bridges follow the written chain, without caps; N, C: chain ends. Non-standard residues stand in square brackets, D forms with d. Residues, ends and D or L forms follow the SMILES beside them. *: point of attachment. NMeF = CN[C@@H](Cc1ccccc1)C(=O)O; NMeI = CC[C@H](C)[C@H](NC)C(=O)O; NMeβAla = CN(CCC(=O)[*:2])[*:1]; NMeD = CN[C@@H](CC(=O)O)C(=O)O; NMeL = CN[C@@H](CC(C)C)C(=O)O; NMeV = CN[C@H](C(=O)O)C(C)C; NMeAbu = CC[C@H](NC)C(=O)O; NMeA = CN[C@@H](C)C(=O)O; Piperidide = C1CCN(*)CC1; Abu = CC[C@H](N)C(=O)O; NBuGly = CCCCNCC(=O)O; Sar = CNCC(=O)O; tBu = CC(C)(C)*",
  "data": [
    {"smiles": "CC[C@H](C)[C@@H]1NC(=O)[C@H](CC(C)C)N(C)C(=O)[C@H](CC(C)C)NC(=O)[C@H](C)N(C)C(=O)C[C@@H](C(=O)N2CCCCC2)N(C)C(=O)[C@H](C)N(C)C(=O)[C@H](CC(C)C)NC(=O)[C@H](C(C)C)N(C)C(=O)[C@H](CC(C)C)N(C)C(=O)CNC(=O)[C@H]([C@@H](C)CC)N(C)C(=O)[C@H](Cc2ccccc2)N(C)C(=O)[C@H](C)NC(=O)[C@H](Cc2ccccc2)N(C)C1=O", "note": "[pd079] ([NMeA]L[NMeL]I[NMeF]A[NMeF][NMeI]G[NMeL][NMeV]L[NMeA][NMeD]-Piperidide; lactam N-14)", "values": [
      {"measurement": "microsomal CLint at 1 µM", "setting": "[1]; [3]", "result": 26.1, "unit": "µL/min/mg"},
      {"measurement": "Mouse Hepatic Microsome CLh,int NADPH(-)", "setting": "[1]; [4]", "result": 38.4, "unit": "µL/min/mg Protein"},
      {"measurement": "Papp A→B", "setting": "[2]; [5]", "result": 0.12, "unit": "×10⁻⁶ cm/s"},
      {"measurement": "Caco2 Papp (10^-6 cm/sec)", "setting": "Caco-2 cells; [6]", "result": "0.12 10^-6 cm/sec"}
    ]},
    {"smiles": "CC[C@@H]1NC(=O)[C@H](C(C)C)N(C)C(=O)[C@H](C)N(C)C(=O)[C@H](Cc2ccccc2)N(C)C(=O)[C@H](CC(C)C)NC(=O)[C@H](Cc2ccccc2)N(C)C(=O)[C@H](C(C)C)NC(=O)[C@H](CC(C)C)N(C)C(=O)[C@H]([C@@H](C)CC)NC(=O)[C@H](CC(C)C)N(C)C(=O)CN(C)C(=O)C[C@@H](C(=O)N2CCCCC2)N(C)C(=O)CNC(=O)[C@H](C)N(C)C1=O", "note": "[pd080] ([Sar][NMeL]I[NMeL]V[NMeF]L[NMeF][NMeA][NMeV][Abu][NMeA]G[NMeD]-Piperidide; lactam N-14)", "values": [
      {"measurement": "microsomal CLint at 1 µM", "setting": "[1]; [3]", "result": 29.3, "unit": "µL/min/mg"},
      {"measurement": "Mouse Hepatic Microsome CLh,int NADPH(-)", "setting": "[1]; [4]", "result": 27.8, "unit": "µL/min/mg Protein"},
      {"measurement": "Papp A→B", "setting": "[2]; [5]", "result": 0.25, "unit": "×10⁻⁶ cm/s"},
      {"measurement": "Caco2 Papp (10^-6 cm/sec)", "setting": "Caco-2 cells; [6]", "result": "0.25 10^-6 cm/sec"}
    ]},
    {"smiles": "CC[C@H](C)[C@@H]1NC(=O)[C@H]([C@@H](C)CC)N(C)C(=O)[C@@H](C)NC(=O)C[C@@H](C(=O)N2CCCCC2)N(C)C(=O)[C@H](Cc2ccccc2)N(C)C(=O)[C@H](C(C)C)NC(=O)CCN(C)C(=O)[C@H](CC)N(C)C(=O)[C@H](CC(C)C)N(C)C(=O)[C@H](C)NC(=O)CN(C)C(=O)[C@H](CC(C)C)N(C)C(=O)CCN(C)C(=O)[C@H](Cc2ccccc2)N(C)C1=O", "note": "[pd081] ([dA][NMeI]I[NMeF][NMeβAla][NMeL][Sar]A[NMeL][NMeAbu][NMeβAla]V[NMeF][NMeD]-Piperidide; lactam N-14)", "values": [
      {"measurement": "Mouse Hepatic Microsome CLh,int NADPH(-)", "setting": "[1]", "result": 5.7, "unit": "µL/min/mg Protein"},
      {"measurement": "Papp A→B", "setting": "[2]", "result": 0.02, "unit": "×10⁻⁶ cm/s"},
      {"measurement": "Caco2 Papp (10^-6 cm/sec)", "setting": "Caco-2 cells; Caco-2", "result": "0.02 10^-6 cm/sec"}
    ]},
    {"smiles": "CCCCN1CC(=O)N(C)[C@@H](Cc2ccccc2)C(=O)N[C@@H](COC(C)(C)C)C(=O)N(C)[C@@H](CC(C)C)C(=O)N(C)[C@@H](CC)C(=O)N(C)[C@@H](C)C(=O)N[C@@H]([C@@H](C)CC)C(=O)N(C)[C@@H](C(C)C)C(=O)N[C@@H](C(C)C)C(=O)N(C)[C@H](C(=O)N2CCCCC2)CC(=O)N(C)CCC(=O)N(C)[C@@H](CC(C)C)C(=O)N[C@@H]([C@@H](C)CC)C(=O)N(C)[C@@H](Cc2ccccc2)C1=O", "note": "[pd082] ([NMeβAla][NMeL]I[NMeF][NBuGly][NMeF]S(tBu)[NMeL][NMeAbu][NMeA]I[NMeV]V[NMeD]-Piperidide; lactam N-14)", "values": [
      {"measurement": "microsomal CLint at 1 µM", "setting": "[1]; [3]", "result": 32.6, "unit": "µL/min/mg"},
      {"measurement": "Mouse Hepatic Microsome CLh,int NADPH(-)", "setting": "[1]; [4]", "result": 38.5, "unit": "µL/min/mg Protein"},
      {"measurement": "Papp A→B", "setting": "[2]; [5]", "result": 0.03, "unit": "×10⁻⁶ cm/s"},
      {"measurement": "Caco2 Papp (10^-6 cm/sec)", "setting": "Caco-2 cells; [6]", "result": "0.03 10^-6 cm/sec"}
    ]},
    {"smiles": "CC[C@@H]1NC(=O)[C@H](CC(C)C)N(C)C(=O)[C@H](C)NC(=O)[C@@H]2CCCN2C(=O)[C@H](CC)N(C)C(=O)[C@H](CC(C)C)N(C)C(=O)CN(C)C(=O)[C@H](Cc2ccccc2)N(C)C(=O)[C@H]([C@@H](C)CC)NC(=O)CCN(C)C(=O)[C@H](C(C)C)N(C)C(=O)[C@H](COC(C)(C)C)NC(=O)[C@H](CC(C)C)N(C)C(=O)C[C@@H](C(=O)N2CCCCC2)N(C)C1=O", "note": "[pd083] ([NMeL]S(tBu)[NMeV][NMeβAla]I[NMeF][Sar][NMeL][NMeAbu]PA[NMeL][Abu][NMeD]-Piperidide; lactam N-14)", "values": [
      {"measurement": "microsomal CLint at 1 µM", "setting": "[1]; [3]", "result": 11.4, "unit": "µL/min/mg"},
      {"measurement": "Mouse Hepatic Microsome CLh,int NADPH(-)", "setting": "[1]; [4]", "result": 7.3, "unit": "µL/min/mg Protein"},
      {"measurement": "Papp A→B", "setting": "[2]; [5]", "result": 0.04, "unit": "×10⁻⁶ cm/s"},
      {"measurement": "Caco2 Papp (10^-6 cm/sec)", "setting": "Caco-2 cells; [6]", "result": "0.04 10^-6 cm/sec"}
    ]},
    {"smiles": "CC[C@H](C)[C@@H]1NC(=O)[C@H](CC(C)C)N(C)C(=O)[C@H](CC(C)C)N(C)C(=O)[C@H](C)N(C)C(=O)C[C@@H](C(=O)N2CCCCC2)N(C)C(=O)[C@H](C)N(C)C(=O)[C@H](CC(C)C)NC(=O)[C@H](C(C)C)N(C)C(=O)[C@H](CC(C)C)N(C)C(=O)CNC(=O)[C@H]([C@@H](C)CC)N(C)C(=O)[C@H](Cc2ccccc2)N(C)C(=O)[C@H](C)NC(=O)[C@H](Cc2ccccc2)N(C)C1=O", "note": "[pd084] ([NMeA][NMeL][NMeL]I[NMeF]A[NMeF][NMeI]G[NMeL][NMeV]L[NMeA][NMeD]-Piperidide; lactam N-14)", "values": [
      {"measurement": "microsomal CLint at 1 µM", "setting": "[1]; [3]", "result": 39, "unit": "µL/min/mg"},
      {"measurement": "Mouse Hepatic Microsome CLh,int NADPH(-)", "setting": "[1]; [4]", "result": 37.8, "unit": "µL/min/mg Protein"},
      {"measurement": "Papp A→B", "setting": "[2]; [5]", "result": 0.21, "unit": "×10⁻⁶ cm/s"},
      {"measurement": "Caco2 Papp (10^-6 cm/sec)", "setting": "Caco-2 cells; [6]", "result": "0.21 10^-6 cm/sec"}
    ]},
    {"smiles": "CC[C@H](C)[C@@H]1NC(=O)[C@H](CC(C)C)N(C)C(=O)CN(C)C(=O)C[C@@H](C(=O)N2CCCCC2)N(C)C(=O)CNC(=O)[C@H](C)N(C)C(=O)[C@H](CC)N(C)C(=O)[C@H](C(C)C)N(C)C(=O)[C@H](C)N(C)C(=O)[C@H](Cc2ccccc2)N(C)C(=O)[C@H](CC(C)C)NC(=O)[C@H](Cc2ccccc2)N(C)C(=O)[C@H](C(C)C)NC(=O)[C@H](CC(C)C)N(C)C1=O", "note": "[pd085] ([Sar][NMeL]I[NMeL]V[NMeF]L[NMeF][NMeA][NMeV][NMeAbu][NMeA]G[NMeD]-Piperidide; lactam N-14)", "values": [
      {"measurement": "microsomal CLint at 1 µM", "setting": "[1]; [3]", "result": 26.9, "unit": "µL/min/mg"},
      {"measurement": "Mouse Hepatic Microsome CLh,int NADPH(-)", "setting": "[1]; [4]", "result": 28.9, "unit": "µL/min/mg Protein"},
      {"measurement": "Papp A→B", "setting": "[2]; [5]", "result": 0.17, "unit": "×10⁻⁶ cm/s"},
      {"measurement": "Caco2 Papp (10^-6 cm/sec)", "setting": "Caco-2 cells; [6]", "result": "0.17 10^-6 cm/sec"}
    ]}
  ]
}
